# Assay results from patent US10201530B2, “Treatment of BRCA1-defective cancer or resistant cancers” (City of Hope, priority 2014, dated 2019).
# Assays:
# [1] = system: OVCAR-4; assay: Cytotoxicity, OVCAR-4 cells; assay type: cell-based, human; details: Homo sapiens, read-out: IC50, mean ± SEM
# Experimental: (§1) All cell lines were acquired from the American Type Culture Collection (Manassas, Va., USA). Cells were maintained in RPMI 1640 medium (Mediatech) with 10% fetal bovine serum, 2 mM glutamine, and 100 U of penicillin and 100 μg of streptomycin per ml of medium (Sigma) at 37° C. in 5% CO2. To isolate HCC1437+BRCA1 cells, parental HCC1937 cells were transfected with pcDNA3.1 plasmid expressing full-length BRCA1 cDNA. Stable transfectant clones were selected and used for drug sensitivity assays. For stable transfection, cells at 30-40% confluence were incubated overnight with […] of plasmid DNA, using FUGENE® 6 transfectin reagent (Roche Molecular Biochemical, Monza, Italy) according to the manufacturer's instructions. Cells were then selected in puromycin (1 μg/ml) (Invitrogen life Technologies, La Jolla, Calif., USA.) After 20 to 30 days, viable puromycin-resistant colonies from HCC1937 transfections were expanded and screened. The clones that stably expressed […] and retained growth potential were assayed for BRCA1 expression by Western blot analysis. By Western blot analysis, we evaluated the restoration of BRCA1 expression in the puromycin-resistant cDNA/transfectant cells.
# (§2) The MTT cytotoxicity assay was performed by incubating with MTT and monitoring the MTT formazan formed by viable cells with a microplate reader at a wavelength of 560 nm; the survival, ratio was determined using the formula: (Atest−Ablank)/(Acontrol−Ablank)×100%. The cytotoxicity was determined in 96-well plates using the semiautomatic fluorescence-based Digital Imaging Microscopy System (DIMSCAN). DIMSCAN uses digital imaging microscopy to quantify viable cells, which selectively accumulate FDA (fluorescein diacetate; Alfa Aesar, Ward Hill, Mass.). DIMSCAN is capable of measuring cytotoxicity over a 4 log dynamic range by quantifying total fluorescence per well (which is proportional to the number of viable cells) after elimination of the background fluorescence by digital thresholding and eosin Y (Mallinckrodt Baker, Center Valley, Pa.) quenching. Cells were seeded into 96-well plates in 100 μL of complete medium at 2,000 to 5,000 cells per well depending on cell line growth rate. After overnight incubation, test compound was added to each well at various concentrations in 50 μL of culture medium. After incubation with the drugs for 96 hours at 37° C., FDA (final concentration: […]) and eosin Y [final concentration: 0.1% (w/v)] were added to each well and the cells were incubated for an additional 20 minutes at 37° C. Total fluorescence per well was then measured using DIMSCAN, and the results were expressed as the ratio of the fluorescence in treated wells to the fluorescence in untreated wells (survival fraction).
# [2] = system: A2780-DDDP; assay: Cytotoxicity, A2780-DDDP cells; assay type: cell-based, human; details: Homo sapiens, cisplatin-resistant ovarian cells, read-out: IC50, mean ± SEM
# Experimental: as §1, §2
# [3] = system: DNA damage checkpoint proteins (ATM, CHK1, CHK2, γ-H2AX); assay: DNA damage checkpoint proteins by Western blot; assay type: cell-based, human
# Experimental: (§3) For subcellular fractionation, cells were trypsinized and washed with cold PBS solution twice. After centrifugation at 1,200 g for 5 min, cells were incubated in buffer (50 mM HEPES, pH 7.5, 150 mM NaCl, 1 mM EDTA) containing 0.2% NONIDET™ P-40 (NP-40), supplemented with protease inhibitors (5 μg/ml each of pepstatin, leupeptin, and aprotinin) and phosphatase inhibitors on ice for 5 min. Following centrifugation at 1,000 g for 5 min, the supernatant was collected (i.e., cytoplasmic fraction) and pellets were washed with the same buffer twice. The washed samples were extracted for 40 min on ice with fractionation buffer containing 0.5% NP-40 for nuclear fraction. All the samples were sonicated and clarified by centrifugation at 16,000 g for 15 min. Protein concentrations of all fractions were determined with Bio-Rad Protein Assay (Bio-Rad Laboratories, Hercules, Calif.). Immunoblotting was performed as described previously (21,22). Briefly, equal amounts of boiled protein samples were subjected to SDS-polyacrylamide gel electrophoresis (PAGE) and transferred onto nitrocellulose membranes (Bio-Rad Laboratories). Membranes were blocked for 1 hour in 3% BSA in Tris buffered saline containing 0.05% Tween 20 (TBST) and incubated for 1 hour with primary antibody (1:500 or 1:1000) diluted in TBST containing 1% BSA. After two washes with TBST, membranes were incubated for 1 hour with horseradish peroxidase-conjugated secondary Abs (1:3000 dilution) at room temperature. The immunoblots were visualized on film with the West-Q chemi-luminescence kit (GenDEPOT, Barker, Tex.).
# [4] = system: γ-H2AX, phospho-p53, phospho-ATM, foxo3, Rad51, BRCA1; assay: DDR-associated proteins in A549 cells (Western blot, immunofluorescence); assay type: cell-based, human
# Experimental: Immunofluorescence experiments were conducted as described previously (21,22). Specifically, A549 cells were grown on glass coverslips. After treatment with COH29 (1 or 10 μM) for 24 or 48 hours, cells were fixed with 4% paraformaldehyde for 10 min and permeabilizsd with TRITON™ X-100 (0.5%). The coverslips were washed with phosphate-buffered saline (PBS) and blocked with PBS-containing 2% bovine serum albumin (BSA), incubated with an Ab specific to FOXO3 or ATM-pS1981 or γ-H2AX or p53-pS15 (1:50-1:200 dilution), followed by Alexa 488-conjugated anti-rabbit or anti-mouse (1:200). Alexa 594-conjugated anti-goat (1:100) secondary Abs (Molecular Probes). Cells were incubated with 4′,6-diamidino-2-phenylindole (DAP1; Sigma) to stain the nuclei. Specific staining was visualized and images were captured with a Leica SF2 AOBS confocal laser scanning microscope. To measure foci-positive cells, we used ˜300 cells randomly captured by confocal microscopy. The percentages of considering foci-positive cells were calculated from cells containing at least five foci. Each error bar presented is the mean of standard deviation.
# as §3
# [5] = system: NHEJ pathway; assay: NHEJ DNA repair, GFP-based chromosomal reporter EJ5-GFP; assay type: cell-based; details: EJ5-GFP reporter cells, 24 h
# Experimental: The EJ2 cells were generated to evaluate Alt-NHEJ through monitoring the fluorescence intensity of GFP and EJ5 cells were used to determine NJEJ as described previously. (23) Cells were seeded into 6-well plate and treated with COH29 or cisplatin at different concentration for 24 hours. The cells were then trypsinized, washed, and analyzed by flow cytometry.
# [6] = molecular target: RR (Homo sapiens, UniProt P31350); details: previously reported, ref (6); cited from earlier work
# RR, sequence (P31350 whole entry): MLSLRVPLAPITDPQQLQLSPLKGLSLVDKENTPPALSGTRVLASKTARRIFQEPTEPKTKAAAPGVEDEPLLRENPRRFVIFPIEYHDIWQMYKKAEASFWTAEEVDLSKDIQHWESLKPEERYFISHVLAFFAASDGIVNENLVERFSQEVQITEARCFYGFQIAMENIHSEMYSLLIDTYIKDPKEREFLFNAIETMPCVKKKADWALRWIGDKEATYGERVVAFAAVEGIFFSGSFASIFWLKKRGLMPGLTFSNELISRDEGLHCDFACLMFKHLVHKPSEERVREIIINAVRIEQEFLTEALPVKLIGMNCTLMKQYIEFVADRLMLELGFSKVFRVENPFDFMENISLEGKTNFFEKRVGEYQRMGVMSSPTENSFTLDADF
smiles,measurement,setting,value
O=C(Nc1nc(-c2ccc(O)c(O)c2)c(-c2ccccc2)s1)c1ccc(O)c(O)c1 [COH29],IC50,[1],11.2 ± 1.51 µM
same,IC50,[2],6.47 ± 1.41 µM
same,γ-H2AX level,[3]; MCF7 and MCF-7 p53−/− cells,increase in the γ-H2AX level
same,"DNA damage checkpoint activation (phosphorylation of ATM, CHK1, CHK2)","[3]; MCF7 cells, wild-type p53",activated the DNA damage checkpoint
same,"DNA damage checkpoint proteins (ATM, CHK1, CHK2) modification",[3]; MCF-7 p53−/− cells,similarly modified
same,"nuclear γ-H2AX, phospho-p53, phospho-ATM","[4]; A549 BRCA1 wild-type NSCLC cells, 48 h","induced accumulation of γ-H2AX, phospho-p53, and phospho-ATM in the nucleus"
same,nuclear foxo3 and p27,[4]; A549 cells,induction of foxo3 and its target protein p27 in the nucleus
same,BRCA1 protein level and Rad51 foci formation,"[4]; A549 cells, 24 h",suppressed the protein level of BRCA1 and Rad51 foci formation
same,"Rad51 expression, Western analysis",[4]; nucleus of A549 cells,downregulated in the nucleus
same,NHEJ repair efficiency,[5],little effect on NHEJ repair
same,effect of RR inhibition on dNTP,[6],causes dNTP depletion in vivo
